From patent US10689378B2, “Triazolopyridine compounds and uses thereof” (Novartis AG, priority 2016, dated 2020)

Legend:
[1] = biological target: wild type PRC2 (wtPRC2) complex (Homo sapiens, UniProt O75530); assay: EED LC-MS assay (SAH production by PRC2); type: biochemical; details: PRC2 LC-MS assay; read-out: (b) IC50 EED LC-MS Qualified
In short: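 LC-MS/MS readout of SAH (d4-SAH standard) after TFA quench gives PRC2 activity, normalized to controls and fitted to dose-response for IC50. Reaction: 12 nM EZH2/SUZ12/EED/Rbap48/AEBP complex, 1 μM SAM, 1.5 μM H3[21-44] peptide, 120 min rt, 20 min compound preincubation.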

EED (1-441)-His protein = biological target: T1, EED (1-441)-His protein (Homo sapiens, UniProt O75530); assay: EED-H3K27Me3 peptide competition binding assay by AlphaScreen; details: EED-H3K27Me3 peptide competition, AlphaScreen; read-out: (a) IC50 EED Alphascreen binding Qualified
T1 construct: 30 nM EED (1-441)-His protein
T1 sequence (O75530 whole entry): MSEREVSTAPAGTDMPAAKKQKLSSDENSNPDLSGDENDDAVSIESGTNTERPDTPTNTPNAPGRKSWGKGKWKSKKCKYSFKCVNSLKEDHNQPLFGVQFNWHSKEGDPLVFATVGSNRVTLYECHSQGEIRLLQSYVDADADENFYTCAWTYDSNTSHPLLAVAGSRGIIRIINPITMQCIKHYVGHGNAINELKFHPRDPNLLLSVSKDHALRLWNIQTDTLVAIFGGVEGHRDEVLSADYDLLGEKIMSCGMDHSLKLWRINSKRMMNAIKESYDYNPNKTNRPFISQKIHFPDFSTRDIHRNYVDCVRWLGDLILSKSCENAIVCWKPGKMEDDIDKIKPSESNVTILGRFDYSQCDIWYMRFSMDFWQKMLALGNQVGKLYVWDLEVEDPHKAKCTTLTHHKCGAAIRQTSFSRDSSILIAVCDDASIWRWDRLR
In short: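 Serially diluted compound (12 points, 3-fold) incubated 20 min with 30 nM EED(1-441)-His and 15 nM biotin-H3K27Me3(19-33) peptide in 25 mM HEPES pH 8, 0.02% Tween-20, 0.5% BSA. Ni-chelate acceptor/streptavidin donor beads (10 μg/mL each) added, 1 h rt dark; 615 nm emission normalized to controls, dose-response fit for IC50.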

[2] = system: H3K27 methylation in G401 cell; assay: ELISA (H3K27 methylation) assay in G401 cells; type: cell-based, human; details: Homo sapiens, G-401, H3K27 methylation ELISA, read-out: (c) IC50 ELISA Qualified
In short: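 IC50 from dose-response fit of percent inhibition relative to DMSO, using H3K27me3/me2 ELISA signal (ECL) normalized to histone H3. Histones HCl-extracted after 48 h compound exposure of G401 cells at up to 20 μM, 8- or 12-point 3-fold series.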

Chain of wild type PRC2 (wtPRC2) complex (O75530 whole entry): as above
Chain of wild type PRC2 (wtPRC2) complex (Q15910 whole entry partner): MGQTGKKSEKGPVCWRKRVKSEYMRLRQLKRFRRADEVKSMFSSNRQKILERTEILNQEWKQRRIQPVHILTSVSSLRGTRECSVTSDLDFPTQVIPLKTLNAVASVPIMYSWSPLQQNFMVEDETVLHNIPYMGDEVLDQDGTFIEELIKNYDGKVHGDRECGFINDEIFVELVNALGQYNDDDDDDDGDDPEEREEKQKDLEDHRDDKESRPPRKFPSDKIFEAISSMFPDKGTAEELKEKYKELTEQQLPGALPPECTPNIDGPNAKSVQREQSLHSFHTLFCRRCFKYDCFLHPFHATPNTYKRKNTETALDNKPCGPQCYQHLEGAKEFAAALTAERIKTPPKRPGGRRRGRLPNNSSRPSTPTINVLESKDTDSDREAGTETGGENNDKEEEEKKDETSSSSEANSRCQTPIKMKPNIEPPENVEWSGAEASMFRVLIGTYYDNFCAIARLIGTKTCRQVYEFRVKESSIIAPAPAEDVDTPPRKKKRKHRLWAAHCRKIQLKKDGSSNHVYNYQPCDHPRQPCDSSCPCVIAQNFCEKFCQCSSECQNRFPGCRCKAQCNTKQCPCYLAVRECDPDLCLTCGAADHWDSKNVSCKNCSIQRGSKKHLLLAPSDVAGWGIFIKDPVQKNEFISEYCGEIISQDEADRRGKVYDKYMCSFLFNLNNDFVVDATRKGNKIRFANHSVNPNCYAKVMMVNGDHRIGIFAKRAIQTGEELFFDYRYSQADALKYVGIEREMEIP
Chain of wild type PRC2 (wtPRC2) complex (Q15022 whole entry partner): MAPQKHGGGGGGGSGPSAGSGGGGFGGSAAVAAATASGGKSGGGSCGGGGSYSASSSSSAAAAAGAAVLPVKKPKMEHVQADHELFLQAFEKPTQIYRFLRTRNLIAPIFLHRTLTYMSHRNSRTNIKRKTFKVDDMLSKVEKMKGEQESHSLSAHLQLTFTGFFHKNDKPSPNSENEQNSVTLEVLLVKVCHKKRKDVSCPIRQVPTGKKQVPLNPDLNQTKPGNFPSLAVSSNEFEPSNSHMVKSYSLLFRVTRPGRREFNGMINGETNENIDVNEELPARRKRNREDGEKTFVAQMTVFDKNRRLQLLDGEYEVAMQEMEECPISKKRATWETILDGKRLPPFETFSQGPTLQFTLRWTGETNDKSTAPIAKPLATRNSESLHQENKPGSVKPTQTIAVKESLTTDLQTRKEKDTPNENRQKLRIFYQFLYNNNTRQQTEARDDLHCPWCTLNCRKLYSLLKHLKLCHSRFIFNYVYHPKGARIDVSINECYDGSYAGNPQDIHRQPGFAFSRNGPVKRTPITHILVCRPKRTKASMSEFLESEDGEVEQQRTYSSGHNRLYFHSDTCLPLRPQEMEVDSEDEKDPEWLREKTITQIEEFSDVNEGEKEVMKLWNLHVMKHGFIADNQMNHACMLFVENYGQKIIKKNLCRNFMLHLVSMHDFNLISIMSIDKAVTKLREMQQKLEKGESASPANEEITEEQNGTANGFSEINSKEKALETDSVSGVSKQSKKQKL
Chain of wild type PRC2 (wtPRC2) complex (Q09028 whole entry partner): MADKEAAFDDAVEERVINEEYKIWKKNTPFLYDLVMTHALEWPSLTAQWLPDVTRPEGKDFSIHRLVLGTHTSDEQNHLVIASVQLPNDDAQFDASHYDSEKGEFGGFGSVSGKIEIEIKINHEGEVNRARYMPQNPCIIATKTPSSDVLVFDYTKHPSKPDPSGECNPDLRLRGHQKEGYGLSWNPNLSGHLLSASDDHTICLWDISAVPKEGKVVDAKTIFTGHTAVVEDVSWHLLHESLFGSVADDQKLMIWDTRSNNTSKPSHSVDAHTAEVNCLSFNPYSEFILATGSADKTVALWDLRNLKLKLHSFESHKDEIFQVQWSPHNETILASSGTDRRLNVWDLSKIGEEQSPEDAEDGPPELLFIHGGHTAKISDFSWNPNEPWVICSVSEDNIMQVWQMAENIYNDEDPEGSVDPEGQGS
Chain of wild type PRC2 (wtPRC2) complex (Q6ZN18 whole entry partner): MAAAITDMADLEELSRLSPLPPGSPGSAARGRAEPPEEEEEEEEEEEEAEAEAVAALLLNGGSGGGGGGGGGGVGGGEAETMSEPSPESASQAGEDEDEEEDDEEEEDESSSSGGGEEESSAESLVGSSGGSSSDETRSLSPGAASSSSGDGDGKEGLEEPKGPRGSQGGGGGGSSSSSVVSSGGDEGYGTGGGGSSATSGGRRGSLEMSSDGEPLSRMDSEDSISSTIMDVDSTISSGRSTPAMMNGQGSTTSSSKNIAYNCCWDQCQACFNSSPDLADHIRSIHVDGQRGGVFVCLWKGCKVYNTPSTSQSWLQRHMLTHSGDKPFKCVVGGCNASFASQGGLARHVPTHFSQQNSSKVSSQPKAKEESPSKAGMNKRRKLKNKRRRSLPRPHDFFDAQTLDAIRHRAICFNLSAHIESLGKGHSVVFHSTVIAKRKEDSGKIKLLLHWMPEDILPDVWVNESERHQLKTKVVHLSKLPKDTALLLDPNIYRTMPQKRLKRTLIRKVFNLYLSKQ

Row | IC50 [1] [nM] | IC50 (EED (1-441)-His protein) [nM] | IC50 [2] [nM] | Structure (SMILES)
1 | 230 | 23.3 | 66.7 | COc1cccc(F)c1CNc1ccc(-c2cc(F)ccc2C)c2nncn12 [Example 223, 8-(5-fluoro-2-methylphenyl)-N-(2-fluoro-6-methoxybenzyl)-[1,2,4]triazolo[4,3-a] pyridin-5-amine]
2 | 147 | 26.9 | 15.9 | COc1cccc(F)c1CNc1ccc(-c2cnn(C3CCNCC3)c2)c2nncn12 [Example 225, N-(2-fluoro-6-methoxybenzyl)-8-(1-(piperidin-4-yl)-1H-pyrazol-4-yl)-[1,2,4]triazolo[4,3-a]pyridin-5-amine]
3 | 92 | 43.3 | 38.8 | COc1cccc(F)c1CNc1ccc(-c2cnn(CCN3CCOCC3)c2)c2nncn12 [Example 226, N-(2-fluoro-6-methoxybenzyl)-8-(1-(2-morpholinoethyl)-1H-pyrazol-4-yl)-[1,2,4] triazolo[4,3-a]pyridin-5-amine]
4 | 131 | 45.5 | 40.2 | COc1cc(F)cc(F)c1CNc1ccc(-c2c(C)noc2C)c2nncn12 [Example 227, N-(2,4-difluoro-6-methoxybenzyl)-8-(3,5-dimethylisoxazol-4-yl)-[1,2,4] triazolo[4,3-a]pyridin-5-amine]
5 | 98.6 | 78.9 | 43.7 | COc1cc(F)cc(F)c1CNc1ccc(-c2ccncc2)c2nncn12 [Example 228, N-(2,4-difluoro-6-methoxybenzyl)-8-(pyridin-4-yl)-[1,2,4]triazolo[4,3-a]pyridin-5-amine]
6 | 55.9 | 16.1 | 13.5 | COc1cccc(F)c1CNc1ccc(-c2ccc(S(C)(=O)=O)cc2C)c2nncn12 [Example 229, N-(2-fluoro-6-methoxybenzyl)-8-(2-methyl-4-(methylsulfonyl)phenyl)-[1,2,4]triazolo[4,3-a]pyridin-5-amine]
7 | 27.2 | 12.9 | 9.4 | COc1cccc(F)c1CNc1ccc(-c2ccncc2C)c2nncn12 [Example 230, N-(2-fluoro-6-methoxybenzyl)-8-(3-methylpyridin-4-yl)-[1,2,4]triazolo[4,3-a] pyridin-5-amine]
8 | 29.1 | 7.7 | 3.4 | COc1cccc(F)c1CNc1ccc(-c2ccc(C(=O)N(C)C)cc2C)c2nncn12 [Example 231, 4-(5-((2-fluoro-6-methoxybenzyl)amino)-[1,2,4]triazolo[4,3-a]pyridin-8-yl)-N,N,3-trimethylbenzamide]
9 | 159 | 50 | 62.2 | COc1cccc(F)c1CNc1ccc(-c2ccnn2C(C)C)c2nncn12 [Example 232, N-(2-fluoro-6-methoxybenzyl)-8-(1-isopropyl-1H-pyrazol-5-yl)-[1,2,4] triazolo[4,3-a]pyridin-5-amine]
10 | 47.8 | 14 | 15.3 | CCn1nccc1-c1ccc(NCc2c(F)cccc2OC)n2cnnc12 [Example 233, 8-(1-ethyl-1H-pyrazol-5-yl)-N-(2-fluoro-6-methoxybenzyl)-[1,2,4]triazolo[4,3-a] pyridin-5-amine]
11 | 149 | 35 | 26.3 | COc1cccc(F)c1CNc1ccc(-c2ccc(CCC(=O)N(C)C)nc2)c2nncn12 [Example 234, 3-(5-(5-((2-fluoro-6-methoxybenzyl)amino)-[1,2,4]triazolo[4,3-a]pyridin-8-yl)pyridin-2-yl)-N,N-dimethyl propanamide]
12 | 107 | 68.7 | 138 | COc1cc(F)cc(F)c1CNc1ccc(-c2ccc(S(C)(=O)=O)cc2)c2nncn12 [Example 235, N-(2,4-difluoro-6-methoxybenzyl)-8-(4-(methylsulfonyl)phenyl)-[1,2,4]triazolo[4,3-a]pyridin-5-amine]
13 | 116 | 83.6 | 66.3 | COc1cccc(F)c1CNc1ccc(-c2cnccc2Cl)c2nncn12 [Example 236, 8-(4-chloropyridin-3-yl)-N-(2-fluoro-6-methoxybenzyl)-[1,2,4]triazolo[4,3-a]pyridin-5-amine]
14 | 116 | 86.9 | 116 | COc1cccc(F)c1CNc1ccc(-c2cccnc2C(F)(F)F)c2nncn12 [Example 237, N-(2-fluoro-6-methoxybenzyl)-8-(2-(trifluoromethyl)pyridin-3-yl)-[1,2,4]triazolo[4,3-a] pyridin-5-amine]
15 | 153 | 74.5 | 85.3 | COc1cccc(F)c1CNc1ccc(-c2ccccc2CO)c2nncn12 [Example 238, (2-(5-((2-fluoro-6-methoxy benzyl)amino)-[1,2,4]triazolo[4,3-a]pyridin-8-yl)phenyl)methanol]
16 | 39.6 | 24.6 | 20 | COc1cc(F)cc(F)c1CNc1ccc(-c2cccnc2C)c2nncn12 [Example 239, N-(2,4-difluoro-6-methoxybenzyl)-8-(2-methylpyridin-3-yl)-[1,2,4]triazolo[4,3-a]pyridin-5-amine]
17 | 53.4 | 52.1 | 29.5 | COc1cc(F)cc(F)c1CNc1ccc(-c2cnc(S(C)(=O)=O)cc2C)c2nncn12 [Example 240, N-(2,4-difluoro-6-methoxybenzyl)-8-(4-methyl-6-(methylsulfonyl)pyridin-3-yl)-[1,2,4]triazolo[4,3-a] pyridin-5-amine]
18 | 56.2 | 16.2 | 12.6 | COc1cc(F)cc(F)c1CNc1ccc(-c2ccc(S(C)(=O)=O)nc2C)c2nncn12 [Example 241, N-(2,4-difluoro-6-methoxybenzyl)-8-(2-methyl-6-(methylsulfonyl)pyridin-3-yl)-[1,2,4]triazolo[4,3-a] pyridin-5-amine]
19 | 27.7 | 14.6 | 8.2 | COc1cccc(F)c1CNc1ccc(-c2c(C)nn(C(C)C)c2C)c2nncn12 [Example 245, N-(2-fluoro-6-methoxybenzyl)-8-(1-isopropyl-3,5-dimethyl-1H-pyrazol-4-yl)-[1,2,4]triazolo[4,3-a]pyridin-5-amine]
20 | 106 | 68.9 | 242 | COC(=O)N1CCC(n2cc(-c3ccc(NCc4c(F)cccc4OC)n4cnnc34)cn2)CC1 [Example 246, methyl 4-(4-(5-((2-fluoro-6-methoxybenzyl)amino)-[1,2,4]triazolo[4,3-a]pyridin-8-yl)-1H-pyrazol-1-yl) piperidine-1-carboxylate]
21 | 700 | 35.8 | 42.7 | COc1cccc(F)c1CNc1ccc(-c2cn(C)nc2C(F)(F)F)c2nncn12 [Example 247, N-(2-fluoro-6-methoxybenzyl)-8-(1-methyl-3-(trifluoromethyl)-1H-pyrazol-4-yl)-[1,2,4]triazolo[4,3-a] pyridin-5-amine]
22 | 81.8 | 16.5 | 9.6 | COc1cccc(F)c1CNc1ccc(-c2cnc(F)cc2C)c2nncn12 [Example 248, 8-(6-fluoro-4-methylpyridin-3-yl)-N-(2-fluoro-6-methoxybenzyl)-[1,2,4]triazolo[4,3-a] pyridin-5-amine]
23 | 41.9 | 22.7 | 12.4 | COc1cccc(F)c1CNc1ccc(-c2ccc(C)nc2C)c2nncn12 [Example 249, 8-(2,6-dimethylpyridin-3-yl)-N-(2-fluoro-6-methoxybenzyl)-[1,2,4]triazolo[4,3-a] pyridin-5-amine]
24 | 20.2 | 14.3 | 6.5 | COc1cccc(F)c1CNc1ccc(-c2ccc(C#N)nc2C)c2nncn12 [Example 250, 5-(5-((2-fluoro-6-methoxybenzyl)amino)-[1,2,4]triazolo[4,3-a]pyridin-8-yl)-6-methylpicolinonitrile]
25 | 41.8 | 15.7 | 8.6 | COc1cccc(F)c1CNc1ccc(-c2cnc(C#N)cc2C)c2nncn12 [Example 251, 5-(5-((2-fluoro-6-methoxybenzyl)amino)-[1,2,4]triazolo[4,3-a]pyridin-8-yl)-4-methylpicolinonitrile]
26 | 7.9 | 14.1 | 4.4 | COc1cccc(F)c1CNc1ccc(-c2cnc(C(=O)N(C)C)cc2C)c2nncn12 [Example 252, 5-(5-((2-fluoro-6-methoxybenzyl)amino)-[1,2,4]triazolo[4,3-a]pyridin-8-yl)-N,N,4-trimethylpicolinamide]
27 | 289 | 66.2 | 59.2 | COc1cc(F)cc(F)c1CNc1ccc(-c2cnccc2C)c2nncn12 [Example 253, N-(2,4-difluoro-6-methoxybenzyl)-8-(4-methylpyridin-3-yl)-[1,2,4]triazolo[4,3-a] pyridin-5-amine]
28 | 159 | 25.1 | 10.4 | COc1cccc(F)c1CNc1ccc(-c2ccc(CNC(C)=O)nc2)c2nncn12 [Example 256, N-((5-(5-((2-fluoro-6-methoxybenzyl)amino)-[1,2,4]triazolo[4,3-a]pyridin-8-yl)pyridin-2-yl)methyl) acetamide]
